Laboratory results as given in patent publication US20120129843A1, “PYRIDYL-THIAZOLYL INHIBITORS OF PRO-MATRIX METALLOPROTEINASE ACTIVATION” (priority 2010, published 2012).
Counter-ions that a name gives are not always drawn.

Columns and labels:
[1] = target: T1, proMMP9(20-445;ΔFnII) (SEQ ID NO:6) (Homo sapiens, UniProt P14780, DEL216-390); assay: ThermoFluor binding assay with proMMP9(20-445;ΔFnII)
T1 construct: start methionine (N); made in house; host or cells: E. coli BL21(DE3) RIL
T1 sequence (P14780 with tags, fused parts or gaps DEL216-390): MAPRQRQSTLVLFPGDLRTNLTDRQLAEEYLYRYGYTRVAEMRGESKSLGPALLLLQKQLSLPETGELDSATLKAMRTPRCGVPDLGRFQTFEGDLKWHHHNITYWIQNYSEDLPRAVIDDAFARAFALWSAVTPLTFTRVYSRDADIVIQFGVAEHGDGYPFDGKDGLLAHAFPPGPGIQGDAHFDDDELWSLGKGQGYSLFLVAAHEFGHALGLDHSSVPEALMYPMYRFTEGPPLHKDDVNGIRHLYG
Experimental: The ThermoFluor® (TF) assay is a 384-well plate-based binding assay that measures thermal stability of proteins (Biomol Screen 2001, 6, 429-40; Biochemistry 2005, 44, 5258-66). The experiments were carried out using instruments available from Johnson & Johnson Pharmaceutical Research & Development, LLC. TF dye used in all experiments was […] (1,8-ANS) (Invitrogen: A-47).
Compounds were arranged in a pre-dispensed plate (Greiner Bio-one: 781280), wherein compounds were serially diluted in 100% DMSO across 11 columns within a series. Columns 12 and 24 were used as DMSO reference and contained no compound. For multiple compound concentration-response experiments, the compound aliquots ([…]) were robotically predispensed directly into black 384-well polypropylene PCR microplates (Abgene: TF-0384/k) using a Cartesian Hummingbird liquid handler (DigiLab, Holliston, Mass.). Following compound dispense, protein and dye solutions were added to achieve the final assay volume of 3 μL. The assay solutions were overlayed with 1 μL of silicone oil (Fluka, type DC 200: 85411) to prevent evaporation.
Assay plates were robotically loaded onto a thermostatically controlled PCR-type thermal block and then heated from 40 to 90° C. at a ramp-rate of 1° C./min for all experiments. Fluorescence was measured by continuous illumination with UV light (Hamamatsu LC6) supplied via fiber optics and filtered through a band-pass filter (380-400 nm; >60D cutoff). Fluorescence emission of the entire 384-well plate was detected by measuring light intensity using a CCD camera (Sensys, Roper Scientific) filtered to detect 500±25 nm, resulting in simultaneous and independent readings of all 384 wells. A single image with 20-sec exposure time was collected at each temperature, and the sum of the pixel intensity in a given area of the assay plate was recorded vs temperature and fit to standard equations to yield the Tm (J Biomol Screen 2001, 6, 429-40).
Thermodynamic parameters necessary for fitting compound binding for each proMMP were estimated by differential scanning calorimetry (DSC) and from ThermoFluor® data. The heat capacity of unfolding for each protein was estimated from the molecular weight and from ThermoFluor® dosing data.
ThermoFluor® with proMMP9(20-445;ΔFnII) (SEQ ID NO:6)
The protein sample preparations included a desalting buffer exchange step via a PD-10 gravity column (GE Healthcare). The desalting buffer exchange was performed prior to diluting the protein to the final assay concentration of 2.8 μM proMMP9(20-445;ΔFnII) (SEQ ID NO:6). The concentration of proMMP9(20-445;ΔFnII) (SEQ ID NO:6) was determined spectrophotometrically based on a calculated extinction coefficient of ε280=39880 M^−1cm^−1, a calculated molecular weight of 28.2 kDa, and calculated pI of 5.5. ThermoFluor® reference conditions were define as follows: 80 μg/mL (2.8 μM) proMMP9(20-445;ΔFnII) (SEQ ID NO:6), 50 μM 1,8-ANS, pH 7.0 Buffer (50 mM HEPES pH 7.0, 100 mM NaCl, 0.001% Tween-20, 2.5 mM MgCl2, 300 μM CaCl2). The thermodynamic parameters for proMMP9(20-445;ΔFnII) (SEQ ID NO:6) are as follows: Tm (° C.)=72 (+/−0.1), ΔUH(Tm) (cal mol^−1)=160000(+/−5000), ΔUS(Tm) (cal mol^−1 K^−1)=434, ΔUCp (cal mol^−1 K^−1)=2400.

[2] = target: T2, full-length proMMP9(1-707) (SEQ ID NO:1), activation by catalytic MMP3 (Homo sapiens, UniProt P14780, R574P); assay: proMMP9/MMP3 P126 Activation Assay; assay type: biochemical
T2 construct: made in house; host or cells: HEK293 (proMMP9, secreted); E. coli (MMP3)
T2 sequence (P14780 20-707 R574P): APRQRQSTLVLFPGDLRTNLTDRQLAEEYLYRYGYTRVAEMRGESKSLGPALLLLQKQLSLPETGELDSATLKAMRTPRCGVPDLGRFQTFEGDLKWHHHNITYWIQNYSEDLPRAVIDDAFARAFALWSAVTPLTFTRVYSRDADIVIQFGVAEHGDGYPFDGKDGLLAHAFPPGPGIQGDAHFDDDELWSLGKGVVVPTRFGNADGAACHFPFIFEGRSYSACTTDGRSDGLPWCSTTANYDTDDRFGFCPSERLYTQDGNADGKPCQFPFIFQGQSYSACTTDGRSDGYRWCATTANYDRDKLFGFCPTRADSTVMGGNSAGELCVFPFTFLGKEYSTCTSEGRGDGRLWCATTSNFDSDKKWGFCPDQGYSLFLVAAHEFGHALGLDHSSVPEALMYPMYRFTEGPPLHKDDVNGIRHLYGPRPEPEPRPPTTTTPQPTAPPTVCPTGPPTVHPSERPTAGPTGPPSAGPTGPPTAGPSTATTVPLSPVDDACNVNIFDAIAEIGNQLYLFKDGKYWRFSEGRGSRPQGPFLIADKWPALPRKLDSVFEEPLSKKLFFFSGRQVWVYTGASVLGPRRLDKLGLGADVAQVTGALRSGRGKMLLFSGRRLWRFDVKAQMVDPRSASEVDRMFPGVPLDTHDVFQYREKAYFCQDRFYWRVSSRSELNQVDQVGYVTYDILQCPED
Experimental: proMMP9/MMP3 P126 Activation Assay
The reaction volume was 50 μL. […] Reactivity of residual MMP3 towards P-126 substrate was minimal under these conditions.

Compound	Kd [1]	IC50 [2]
CC(C)Oc1ccc(S(N)(=O)=O)cc1Nc1nc(-c2ccc(C(=O)NC3CCOCC3)nc2)cs1 [Example 96, 5-(2-((2-Isopropoxy-5-sulfamoylphenyl)amino)thiazol-4-yl)-N-(tetrahydro-2H-pyran-4-yl)picolinamide.TFA]	1900 nM	590 nM
CC(C)Oc1ccc(S(N)(=O)=O)cc1Nc1nc(-c2ccc(N3CCNC(C(F)(F)F)C3)nc2)cs1 (centres unmarked) [Example 80, 4-Isopropoxy-3-((4-(6-(3-(trifluoromethyl)piperazin-1-yl)pyridin-3-yl)thiazol-2-yl)amino)benzenesulfonamide.TFA]	150 nM	360 nM
CC(C)Oc1ccc(S(N)(=O)=O)cc1Nc1nc(-c2ccc(N3CCC(CO)CC3)nc2)cs1 [Example 79, 3-((4-(6-(4-(Hydroxymethyl)piperidin-1-yl)pyridin-3-yl)thiazol-2-yl)amino)-4-isopropoxybenzenesulfonamide.TFA]	150 nM	340 nM
CC1CCN(c2ccc(-c3csc(Nc4cc(S(N)(=O)=O)ccc4OC(C)C)n3)cn2)CC1 [Example 77, 4-Isopropoxy-3-((4-(6-(4-methylpiperidin-1-yl)pyridin-3-yl)thiazol-2-yl)amino)benzenesulfonamide.TFA]	1900 nM	> 20000 nM
CC(C)Oc1ccc(S(N)(=O)=O)cc1Nc1nc(-c2ccc(C(=O)NCC3CCN(C)CC3)nc2)cs1 [Example 95, 5-(2-((2-Isopropoxy-5-sulfamoylphenyl)amino)thiazol-4-yl)-N-((1-methylpiperidin-4-yl)methyl)picolinamide.TFA]	–	310 nM
CC(C)Oc1ccc(S(N)(=O)=O)cc1Nc1nc(-c2ccc(C(=O)NC3CN4CCC3CC4)nc2)cs1 (centres unmarked) [Example 86, 5-(2-((2-Isopropoxy-5-sulfamoylphenyl)amino)thiazol-4-yl)-N-(1-azabicyclo[2.2.2]octan-3-yl)picolinamide.TFA]	460 nM	400 nM
CC(C)Oc1ccc(S(N)(=O)=O)cc1Nc1nc(-c2ccc(N3CCN(C4CC4)CC3)nc2)cs1 [Example 61, 3-((4-(6-(4-Cyclopropylpiperazin-1-yl)pyridin-3-yl)thiazol-2-yl)amino)-4-isopropoxybenzenesulfonamide.TFA]	–	300 nM
CC(C)Oc1ccc(S(N)(=O)=O)cc1Nc1nc(-c2ccc(C(=O)NC3CCN(C(C)C)CC3)nc2)cs1 [Example 88, 5-(2-((2-Isopropoxy-5-sulfamoylphenyl)amino)thiazol-4-yl)-N-(1-isopropylpiperidin-4-yl)picolinamide.TFA]	260 nM	330 nM
CC(C)Oc1ccc(S(N)(=O)=O)cc1Nc1nc(-c2ccc(N3CCCCC3)nc2)cs1 [Example 76, 4-Isopropoxy-3-((4-(6-(piperidin-1-yl)pyridin-3-yl)thiazol-2-yl)amino)benzenesulfonamide.TFA]	240 nM	> 20000 nM
CCOC(=O)CCNC(=O)c1ccc(-c2csc(Nc3cc(S(N)(=O)=O)ccc3OC(C)C)n2)cn1 [Example 87, Ethyl 3-(5-(2-((2-isopropoxy-5-sulfamoylphenyl)amino)thiazol-4-yl)picolinamido)propanoate.TFA]	360 nM	~2000 nM
CC(C)Oc1ccc(S(N)(=O)=O)cc1Nc1nc(-c2ccc(C(=O)NC3CCCN(C)C3)nc2)cs1 (centres unmarked) [Example 89, 5-(2-((2-Isopropoxy-5-sulfamoylphenyl)amino)thiazol-4-yl)-N-(1-methylpiperidin-3-yl)picolinamide.TFA]	360 nM	350 nM
CC(C)Oc1ccc(S(N)(=O)=O)cc1Nc1nc(-c2ccnc(Cl)c2)cs1 [Intermediate 9, 3-[4-(2-Chloro-pyridin-4-yl)-thiazol-2-ylamino]-4-isopropoxy-benzenesulfonamide.TFA]	96000 nM	–

More lines, in order of falling IC50 [2], values ahead:

Kd [1]	IC50 [2]	Compound
340 nM	~300 nM	COC1CCN(c2ccc(-c3csc(Nc4cc(S(N)(=O)=O)ccc4OC(C)C)n3)cn2)CC1 [Example 78, 4-Isopropoxy-3-((4-(6-(4-methoxypiperidin-1-yl)pyridin-3-yl)thiazol-2-yl)amino)benzenesulfonamide.TFA]
450 nM	230 nM	COCCCN(C)c1ccc(-c2csc(Nc3cc(S(N)(=O)=O)ccc3OC(C)C)n2)cn1 [Example 92, 4-Isopropoxy-3-((4-(6-((3-methoxypropyl)(methyl)amino)pyridin-3-yl)thiazol-2-yl)amino)benzenesulfonamide.TFA]
69 nM	210 nM	CC(=O)N1CCN(c2ccc(-c3csc(Nc4cc(S(N)(=O)=O)ccc4OC(C)C)n3)cn2)CC1 [Example 65, 3-((4-(6-(4-Acetylpiperazin-1-yl)pyridin-3-yl)thiazol-2-yl)amino)-4-isopropoxybenzenesulfonamide.TFA]
120 nM	210 nM	CC(C)Oc1ccc(S(N)(=O)=O)cc1Nc1nc(-c2ccc(N3CCNC(C(N)=O)C3)nc2)cs1 (centres unmarked) [Example 73, 4-(5-(2-((2-Isopropoxy-5-sulfamoylphenyl)amino)thiazol-4-yl)pyridin-2-yl)piperazine-2-carboxamide.TFA]
110 nM	140 nM	CC(C)Oc1ccc(S(N)(=O)=O)cc1Nc1nc(-c2ccc(C3=CCNCC3)nc2)cs1 [Example 72, 4-Isopropoxy-3-((4-(1′,2′,3′,6′-tetrahydro-[2,4′-bipyridin]-5-yl)thiazol-2-yl)amino)benzenesulfonamide.TFA]
310 nM	140 nM	CC(C)Oc1ccc(S(N)(=O)=O)cc1Nc1nc(-c2ccc(N3CCN(S(C)(=O)=O)CC3)nc2)cs1 [Example 83, 4-Isopropoxy-3-((4-(6-(4-(methylsulfonyl)piperazin-1-yl)pyridin-3-yl)thiazol-2-yl)amino)benzenesulfonamide.TFA]
71 nM	130 nM	CC1CN(c2ccc(-c3csc(Nc4cc(S(N)(=O)=O)ccc4OC(C)C)n3)cn2)CC(C)N1 (centres unmarked) [Example 67, 3-((4-(6-(3,5-Dimethylpiperazin-1-yl)pyridin-3-yl)thiazol-2-yl)amino)-4-isopropoxybenzenesulfonamide.TFA]
130 nM	130 nM	CC(C)Oc1ccc(S(N)(=O)=O)cc1Nc1nc(-c2ccc(C3CCNCC3)nc2)cs1 [Example 81, 4-Isopropoxy-3-((4-(6-(piperidin-4-yl)pyridin-3-yl)thiazol-2-yl)amino)benzenesulfonamide.TFA]
280 nM	110 nM	CC(C)Oc1ccc(S(N)(=O)=O)cc1Nc1nc(-c2ccc(N(C)CCO)nc2)cs1 [Example 75, 3-((4-(6-((2-Hydroxyethyl)(methyl)amino)pyridin-3-yl)thiazol-2-yl)amino)-4-isopropoxybenzenesulfonamide.TFA]
65 nM	100 nM	CC(C)Oc1ccc(S(N)(=O)=O)cc1Nc1nc(-c2ccc(N3CCNC(C)(C)C3)nc2)cs1 [Example 69, 3-((4-(6-(3,3-Dimethylpiperazin-1-yl)pyridin-3-yl)thiazol-2-yl)amino)-4-isopropoxybenzenesulfonamide.TFA]
